Converted amounts (≈) assume the structure as drawn.

The subject of the assay is H1N1-TR (Tamiflu resistant virus strain). Description: microbe, parasite or virus in culture. The assay is classed as cell-based. The conditions noted are these: unidentified influenza virus, H1N1, read-out: MIC, H1N1-TR.
On to `COc1cc2c(c(OC)c1OC)-c1c(cc3c(c1OC)OCO3)C[C@H](C)[C@@](C)(O)[C@H]2OC(=O)c1ccccc1` (atropisomer, axis not shown) [Benzoylgomisin P], for which the MIC stood at 12.5 mg/L (≈ 23.3 µM).

In the case of `C/C=C(\C)C(=O)O[C@H]1c2cc(OC)c(OC)c(OC)c2-c2c(cc3c(c2OC)OCO3)C[C@H](C)[C@@]1(C)O` (atropisomer, axis not shown) [Tigloylgomisin P], the MIC was 75 mg/L (≈ 146 µM).

As to `COc1cc([C@@H]2c3cc(OC)c(O)cc3C(=O)[C@H](C)[C@H]2C)ccc1O` [Epiwulignan A1], the MIC was found to be 12.5 mg/L (≈ 36.5 µM).

Regarding `NC(=O)c1ncn([C@@H]2O[C@H](CO)[C@@H](O)[C@H]2O)n1` [Ribavirin, ribavirin, reference compound], the MIC stood at 3.12 mg/L (≈ 12.8 µM).

`COc1cc2c(cc1O)C(=O)[C@@H](C)[C@@H](C)[C@@H]2c1ccc(OC)c(OC)c1` [Schisandrone]: the MIC was 6.25 mg/L (≈ 17.5 µM).

As for `COc1cc([C@@H]2c3cc(OC)c(O)cc3C(=O)[C@@H](C)[C@H]2C)ccc1O` [Wulignan A1], the MIC came to 12.5 mg/L (≈ 36.5 µM).

These data come from patent publication US8414938B2, “Schisandrae fructus extracts for inhibition or prevention of H1N1 influenza virus infection and its application thereof” (National Defense Medical Center, priority 2011, dated 2013).
